The values that follow are results of earlier work, collected in patent US11975013B2, “Stable formulations comprising thiotepa” (SHORLA PHARMA LTD., priority 2020, dated 2024).

The conditions of the data set: reconstituted in water, stored longer than five days; EP 0 419 890.

Turning to `S=P(N1CC1)(N1CC1)N1CC1` [thiotepa, N,N′,N″-triethylenethiophosphoramide], the “potency on storage (in words)” value is recorded as “substantial loss of potency”.
